The nature of data set [1]: Analysis of luciferase siRNA-encapsulated lipid nanoparticle (Production Example 1). It counts as physicochemical. The note with it: for Rate of encapsulation / Average particle size: luc siRNA lipid nanoparticle; for siRNA concentration: luc siRNA lipid nanoparticle dispersion after dialysis and filtration; for Average particle size: cationic lipid:DPPC:cholesterol:GS-020=60:10.6:28:1.4, Z-average, dynamic light scattering. The text has this: (§1) The particle size of the lipid particle (in the composition) can be measured by a known approach. For example, the particle size can be calculated as a Z-average particle size by the cumulant analysis of an autocorrelation function using a particle size measurement apparatus Zetasizer Nano ZS (Malvern Instruments) based on a dynamic light scattering measurement technique. The particle size (average particle size) of the lipid particle (in the composition) is, for example, 10 to 200 nm, preferably 60 to 170 nm.
(§2) The concentration and rate of encapsulation of the nucleic acid (e.g., siRNA or mRNA) in the composition of the present invention can be measured by a known approach. For example, the nucleic acid is fluorescently labeled using Quant-iT™ RiboGreen® (Invitrogen Corp.), and the fluorescence intensity can be measured to determine the concentration and the rate of encapsulation. The concentration of the nucleic acid in the composition can be calculated using a calibration curve prepared from aqueous nucleic acid solutions having known concentrations. The rate of encapsulation can be calculated on the basis of the difference in fluorescence intensity between the presence and absence of addition of Triton-X 100 (surfactant for disrupting the lipid particle). The concentration of the nucleic acid in the composition refers to the total concentration of a nucleic acid encapsulated in the lipid particle and an unencapsulated nucleic acid. The rate of encapsulation refers to the ratio of the nucleic acid encapsulated in the lipid particle to all nucleic acids in the composition.
A lipid mixture (cationic lipid:DPPC:cholesterol:GS-020=60:10.6:28:1.4, molar ratio) was dissolved in 90% of EtOH and 10% of a 25 mM acetate buffer solution (pH 4.0) to obtain a 7.4 mg/ml lipid solution. Luciferase (luc) siRNA (see Table 2) was dissolved in a 25 mM acetate buffer solution (pH 4.0) to obtain a 0.15 mg/ml nucleic acid solution. The obtained lipid solution and nucleic acid solution were mixed at a flow rate ratio of 1 ml/min:5 ml/min at room temperature using Asia microfluidic system (Syrris Ltd.) to obtain a dispersion containing a composition. The obtained dispersion was dialyzed against water at room temperature for 1 hour and against PBS at room temperature for 18 hours using Slyde-A-Lyzer (molecular weight cutoff: 20 K, Thermo Fischer Scientific Inc.). Subsequently, the dialysate was filtered through a 0.2 μm syringe filter (Iwaki) and preserved at 4° C. Hereinafter, the particle size of the lipid particle in the composition was calculated as a Z-average particle size by the cumulant analysis of an autocorrelation function using a particle size measurement apparatus Zetasizer Nano ZS (Malvern Instruments) based on a dynamic light scattering measurement technique.

Data set [2] deals with human liver cancer-derived cell line Hep3B stably expressing luciferase. Briefly: Transfection of cultured cell with siRNA (luciferase knockdown). It counts as cell-based. To be noted: lipid particle containing luciferase siRNA, 48 hours after addition, read-out: siRNA concentration necessary for 50% knockdown. The procedure: A human liver cancer-derived cell line Hep3B stably expressing luciferase was cultured at a cell density of 6000 cells/well in a 96-well plate. 24 hours later, 10 μl of the lipid particle containing luciferase siRNA was added to the medium. 48 hours after the addition of siRNA, the amount of decrease in expression (knockdown) of luciferase was measured using Picagene LT2.0 kit (Toyobo Co., Ltd.).

Data set [3] is described as follows: Analysis of luciferase mRNA-encapsulated lipid nanoparticle (Production Example 2). The note with it: for Rate of encapsulation / Average particle size: luciferase mRNA lipid nanoparticle; for mRNA concentration: luciferase mRNA lipid nanoparticle dispersion after dialysis and filtration; for Average particle size: cationic lipid:DPPC:cholesterol:GS-020=60:10.6:28:1.4. Type of data set: physicochemical.
Description: as §1, §2
A lipid mixture (cationic lipid:DPPC:cholesterol:GS-020=60:10.6:28:1.4, molar ratio) was dissolved in 90% of EtOH and 10% of water to obtain an 8.5 mg/ml lipid solution. Luciferase mRNA (TriLink BioTechnologies, Inc.) was dissolved in a 10 mM 2-morpholinoethanesulfonic acid (MES) buffer solution (pH 4.0) to obtain a 0.22 mg/ml nucleic acid solution. The obtained lipid solution and nucleic acid solution were mixed at a flow rate ratio of 3 ml/min:6 ml/min at room temperature using NanoAssemblr apparatus (Precision NanoSystems Inc.) to obtain a dispersion containing a composition. The obtained dispersion was dialyzed against water at room temperature for 1 hour and against PBS at 4° C. for 48 hours using Slyde-A-Lyzer (molecular weight cutoff: 20 K, Thermo Fischer Scientific Inc.). Subsequently, the dialysate was filtered through a 0.2 μm syringe filter (Iwaki) and preserved at 4° C.

In data set [4] the test system is human colorectal cancer-derived cell line HCT116. Briefly: Transfection of cultured cell with mRNA (luciferase luminescence). The note with it: 10 ng luciferase mRNA, 24 hours, Table 10 (PBS control 293). It counts as cell-based. The procedure:
A human colorectal cancer-derived cell line HCT116 was cultured at a cell density of 6000 cells/well in a 96-well plate. 24 hours later, 10 μl of the lipid particle containing 10 ng of luciferase mRNA was added to the medium. 24 hours after the addition of mRNA, a reagent of Picagene LT2.0 kit (Toyobo Co., Ltd.) was added to the culture plate of HCT116. The luminescence (count per sec (cps)) of luciferase was measured using a luminescence plate reader EnVision (PerkinElmer, Inc.).

The subject of data set [5] is Col1a1 gene. Kind of data set: Hepatic collagen 1a1 gene knockdown in CCl4 hepatic fibrosis mouse model. Type of data set: in vivo. The note with it: male Balb/c mouse, Col1a1 siRNA + FVII siRNA 0.1 + 0.1 mg/kg intravenous, liver 4 days after administration, qPCR normalized with GAPDH, vs siRNA non-administration group. Here is the method:
(§3) The Col1a1 siRNA-encapsulated lipid nanoparticle was administered at 0.1 mg/kg into the orbital plexus of the vein of each 8-week-old male Balb/c mouse. 3 hours later, CCl4 mixed with corn oil was orally administered at a dose of 0.1 mL/kg (10 mL/kg) by forced single-dose administration (n=6 in each group). 4 days after the administration of the siRNA-encapsulated lipid nanoparticle, the liver was collected from the mouse euthanized under anesthesia, followed by gene expression analysis by quantitative PCR. The Col1a1 gene expression level and the FVII gene expression level were normalized with the expression level of GAPDH. The amount of decrease in Col1a1 gene expression as compared with a siRNA non-administration group was regarded as the rate of knockdown. In mice intravenously given the siRNA-encapsulated lipid nanoparticle formed using the compound of the present invention, the knockdown of the activated stellate cell marker gene Col1a1 gene was strongly observed, as compared with the rate of knockdown of the hepatic parenchymal cell marker gene FVII.
On the technique in general: Real-time PCR tracks product formation cycle by cycle.

For data set [6], the system named is FVII gene. Briefly: Hepatic FVII gene knockdown in CCl4 hepatic fibrosis mouse model. It counts as in vivo. The note with it: male Balb/c mouse, Col1a1 siRNA + FVII siRNA 0.1 + 0.1 mg/kg intravenous, liver 4 days after administration, qPCR normalized with GAPDH. Here is the method:
as §3

The nature of data set [7]: Analysis of Col1a1 siRNA + FVII siRNA-encapsulated lipid nanoparticle (Production Example 3). The note with it: for Rate of encapsulation / Particle size: Col1a1 siRNA + FVII siRNA lipid nanoparticle; for Particle size: cationic lipid:DPPC:cholesterol:GS-020=60:10.6:28:1.4; for Col1a1 siRNA + FVII siRNA concentration: lipid nanoparticle dispersion after dialysis and filtration. It counts as physicochemical.
Description: as §1, §2
A lipid mixture (cationic lipid:DPPC:cholesterol:GS-020=60:10.6:28:1.4, molar ratio) was dissolved in 90% of EtOH and 10% of a 25 mM acetate buffer solution (pH 4.0) to obtain a 7.4 mg/ml lipid solution. siRNA against collagen 1a1 (Col1a1) and siRNA against factor VII (FVII) were dissolved in equal weights in a 25 mM acetate buffer solution (pH 4.0) to obtain a 0.15 mg/ml nucleic acid solution. The sequences of Col1a1 siRNA and FVII siRNA were quoted from Hepatology, […], No. 4, 2015, and Silence, Vol. 1, No. 16, 2010, respectively. The obtained lipid solution and nucleic acid solution were mixed at a flow rate ratio of 1 ml/min:5 ml/min using a microfluidic mixing apparatus NanoAssemblr (Precision NanoSystems Inc.) to obtain a dispersion containing a composition. The obtained dispersion was dialyzed against water at room temperature for 1 hour and against PBS at room temperature for 18 hours using Slyde-A-Lyzer (molecular weight cutoff: 20 K, Thermo Fischer Scientific Inc.). Subsequently, the dialysate was filtered through a 0.2 μm syringe filter (Iwaki) and preserved at 4° C. The siRNA-encapsulated lipid nanoparticle was very favorably formed using the compound of the present invention.

SMILES strings stand for the structures.

The results in this text go back to patent publication US12479791B2, “Cationic lipid” (Takeda Pharmaceutical Company Limited, priority 2018, dated 2025).

As for `CCCCCCCC(=O)OCC(COC(=O)CCCCCCC)(COC(=O)CCCN(C)C)COC(=O)C(CCCCCC)CCCCCC` [Example 2, 2-(((4-(Dimethylamino)butanoyl)oxy)methyl)-2-(((2-hexyloctanoyl)oxy)methyl)propane-1,3-diyl dioctanoate], in data set [1], the Rate of encapsulation amounted to 96%, the siRNA concentration worked out at 415 µg/mL and the Average particle size was 71 nm. Further, the IC50 in data set [2] is 14 nM.

For `CCCCCCC(=O)OCC(COC(=O)CCCCN(C)C)(COC(=O)C(CCCCC)CCCCC)COC(=O)C(CCCCC)CCCCC` [Example 5, 2-(((5-(Dimethylamino)pentanoyl)oxy)methyl)-2-((heptanoyloxy)methyl)propane-1,3-diyl bis(2-pentylheptanoate)], in data set [1], the Rate of encapsulation was determined as 96%, the siRNA concentration was 120 µg/mL and the Average particle size came to 83 nm. For the same molecule, the IC50 in data set [2] worked out at 28 nM.

For `CCCCCCCC(=O)OCC(COC(=O)CCCN(C)C)(COC(=O)C(CCCCCC)CCCCCC)COC(=O)C(CCCCCC)CCCCCC` [Example 6, 2-(((4-(Dimethylamino)butanoyl)oxy)methyl)-2-((octanoyloxy)methyl)propane-1,3-diyl bis(2-hexyloctanoate)], in data set [1], the Rate of encapsulation came out at 93%, the siRNA concentration was 389 µg/mL and the Average particle size is recorded as 77 nm. The IC50 in data set [2] came to 41 nM.

In data set [3], `CCCCCCCC(=O)OCC(COC(=O)CCCCCCC)(COC(=O)CCCCN(C)C)COC(=O)CCC(CCCCCCC)CCCCCCC` [Example 1, 3-((5-(Dimethylamino)pentanoyl)oxy)-2,2-bis((octanoyloxy)methyl)propyl 4-heptylundecanoate] displayed a Rate of encapsulation of 96%, a mRNA concentration of 145 µg/mL and an Average particle size of 112 nm. The “Average luminescence (cps) of 3 wells” value in data set [4] is given as 110733 cps. Further, the “Rate of Col1a1 knockdown” value in data set [5] is on record as 86%. For the same molecule, the “Rate of FVII knockdown” value in data set [6] worked out at 0%. Besides, in data set [7], the Rate of encapsulation is 98%, the Particle size came to 111 nm and the “Col1a1 siRNA + FVII siRNA concentration” value was found to be 128 µg/mL.

For `CCCCCCCCCC(=O)OCC(COC(=O)CCCCCCCCC)(COC(=O)CCCCN(C)C)COC(=O)CCC(CCCC)C(CCCC)CCCC` (centres unmarked) [Example 14, 2-(((4,5-Dibutylnonanoyl)oxy)methyl)-2-(((5-(dimethylamino)pentanoyl)oxy)methyl)propane-1,3-diyl didecanoate], in data set [3], the Rate of encapsulation worked out at 94%, the mRNA concentration was 134 µg/mL and the Average particle size came out at 88 nm. Also, the “Average luminescence (cps) of 3 wells” value in data set [4] came to 178133 cps. Also, in data set [5], the “Rate of Col1a1 knockdown” value stood at 76%. In addition, in data set [6], the “Rate of FVII knockdown” value is reported as 16%. In addition, in data set [7], the Rate of encapsulation stood at 96%, the Particle size came to 97 nm and the “Col1a1 siRNA + FVII siRNA concentration” value was 126 µg/mL.

For the molecule `CCCCCCCC(=O)OCC(COC(=O)CCCCN(C)C)(COC(=O)C(CCCCCC)CCCCCC)COC(=O)C(CCCCCC)CCCCCC` [Example 7, 2-(((5-(Dimethylamino)pentanoyl)oxy)methyl)-2-((octanoyloxy)methyl)propane-1,3-diyl bis(2-hexyloctanoate)], in data set [1], the Rate of encapsulation amounted to 97%, the siRNA concentration was 376 µg/mL and the Average particle size stood at 73 nm. Also, in data set [2], the IC50 was 1.2 nM.

In data set [1], `CCCCCCC(=O)OCC(COC(=O)CCCN(C)C)(COC(=O)C(CCCCC)CCCCC)COC(=O)C(CCCCC)CCCCC` [Example 4, 2-(((4-(Dimethylamino)butanoyl)oxy)methyl)-2-((heptanoyloxy)methyl)propane-1,3-diyl bis(2-pentylheptanoate)] had a Rate of encapsulation of 91%, a siRNA concentration of 121 µg/mL and an Average particle size of 73 nm. Also, the IC50 in data set [2] is 190 nM.

`CCCCCCCCCC(=O)OCC(COC(=O)CCCCCCCCC)(COC(=O)CCCCN(C)C)COC(=O)CCC(CCC)C(CCC)CCC` (centres unmarked) [Example 16, 2-(((5-(Dimethylamino)pentanoyl)oxy)methyl)-2-(((4,5-dipropyloctanoyl)oxy)methyl)propane-1,3-diyl didecanoate]: in data set [3], the Rate of encapsulation was 94%, the mRNA concentration turned out to be 134 µg/mL and the Average particle size is listed as 109 nm. In addition, the “Average luminescence (cps) of 3 wells” value in data set [4] is listed as 141560 cps. Besides, the “Rate of Col1a1 knockdown” value in data set [5] was found to be 74%. Moreover, the “Rate of FVII knockdown” value in data set [6] is given as 15%. For the same molecule, in data set [7], the Rate of encapsulation turned out to be 96%, the Particle size worked out at 103 nm and the “Col1a1 siRNA + FVII siRNA concentration” value came to 124 µg/mL.
